PMC9225715, “Development of PD3 and PD3-B for PDEδ inhibition to modulate KRAS activity” (Journal of Enzyme Inhibition and Medicinal Chemistry, 2022)

Legend:
PDEδ [1] = target: T1, PDEδ (Homo sapiens, UniProt O43924); assay: Fluorescence polarisation (FP)-based binding assay; settings: 0.5 µM PD titrated with PDEδ, PBS pH 7.2; mean ± SD of three independent experiments; read-out: Kd value
T1 construct: made in house; host or cells: E. coli BL21(DE3)
Protocol: To evaluate the binding affinities of PDs to PDEδ, we also carried out a fluorescence polarisation (FP)-based binding assay after incubation of PDs with PDEδ. […] In the presence of 0.5 µM PD compounds, the polarisation value (mP value) increased following treatment with purified PDEδ in a dose-dependent manner until treatment with excess PDEδ induced saturation of binding. Among the tested compounds, 8 compounds were selected for further evaluation and SAR analysis. The binding curves for the selected 8 compounds are shown with their Kd values in Supplemental Figure S3.
(§1) Figure 3. Binding affinities of PDs measured by fluorescence polarisation. (A) Representative binding curve of PDs (PD3) titrated with PDEδ. The FP value was measured in PBS buffer (pH 7.2) containing 8 concentrations (0, 0.5, 1, 2, 4, 8, 16 and 32 μM) of PDEδ mixed with 0.5 μM PDs. Ex: 440 nm, Em: 526 nm; (B) Kd value and half-life of each compound; (C, D) Kinetic trace of PD3 and PD7 in the competition assay. PD3 was shown as a compound with the longest retention time (slow dissociation), whereas PD7 was shown as a compound with the shortest retention time (fast dissociation). The half-life was obtained by a competition binding assay using excess deltarasin. The optimal concentration of PDEδ for the competition assay was determined using the Kd value and PD concentration (0.5 μM) for making more than 68% of the binding complex. Ex: 430 nm, Em: 520 nm. TEXT PRINTED IN THE PICTURE: (A) PD3: Best-fit values Bmax: 261.7; Best-fit values Kd: 0.4991; Std. Error Bmax: 17.98; Std. […] Error Bmax 17.98 (last digit 8 or 6) and Std. Error Kd 0.1956 (5 and 6 not certain) / Panels C and D: k and half-life are printed without a label of their own; assigned to PD3 and PD7 from the panel legends (PDEδ+PD3+Del, PDEδ+PD7+Del)
PDEδ was diluted to make a series of two-fold dilutions with a starting concentration of 32 µM. The diluted solution was mixed with PBS buffer [137 mM NaCl, 2.7 mM KCl, 10 mM Na2HPO4, 2 mM KH2PO4 (pH 7.2)] and then the mixture was loaded on a 96 well black plate (SPL life Science, Gyeonggi-do, Republic of Korea). Compounds were transferred to the wells of assay plate and the final concentration of compounds was fixed to 0.5 µM. After the addition of the compound, the assay plates were incubated for 2 h at 4 °C. FP values were detected by SpectraMax M5 microplate reader (Molecular Devices, San Jose, CA) at the maximum absorption and emission wavelengths of PD compounds in assay buffer. Kd values were determined by previously reported method.

PDEδ [2] = target: T1, PDEδ; assay: FP-based competition binding assay using excess deltarasin
Protocol: as §1
To confirm that the PD compound occupies the same farnesylation binding site as deltarasin in PDEδ and to exclude the possibility that the FP signal resulted from non-specific hydrophobic interactions, we carried out a FP-based competition assay. PDs (0.5 µM) were incubated with the purified PDEδ protein for 2 h to ensure complete binding between the compound and the protein. Then, deltarasin was added to replace the PD compound in the prenyl binding pocket of PDEδ, which decreased the FP due to the free rotation of the released PD compound. As shown in Figure 3(B), the reverse correlation between Kd values and half-lives was observed (Figure 3(B) and Table 1). […] The rate constants and half-lives were measured only when the increased concentration of deltarasin produced concentration-independent kinetic parameters, which reflects complete displacement of the binding site with the deltarasin. The kinetic trace was fit to a single exponential decay to generate the dissociation rate constant and half-life. Given that the Kd value is a ratio of koff/kon in a simple bimolecular binding model, the measured half-life and Kd are not always matched due to the contribution from the association rate constant. Figure 3(C) (PD3) and 3 D (PD7) show a representative kinetic trace obtained in the competition assay.
Deltarasin, a well-known PDEδ inhibitor, was purchased from Chemietek (Indianapolis, IN) for the competition assay. Assay buffer and the plate were the same as used in fluorescence polarisation assay. The optimal concentration of PDEδ was determined based on the Kd values and ligand concentration (0.5 µM) to ensure the formation of ligand-protein complex. The mixture of PDEδ and compounds were incubated for 2 h at 4 °C. After adding deltarasin to the mixture, FP was immediately recorded by SpectraMax M5 microplate reader (Molecular Devices, San Jose, CA) with excitation at 430 nm and emission at 520 nm. In SpectraMax M5 microplate reader, single excitation and emission wavelengths need to be used for testing all compounds. Therefore, Ex 430/Em 520 was used for competition binding assay. The selected ex/em wavelengths have only a difference of less than 10 nm from the maximum wavelengths, and there was no critical issue for conducting assay. The kinetic trace was fit to a single exponential decay to generate dissociation rate constant and half-life.

PDEδ [3] = target: T1, PDEδ; assay: Fluorescence measurement after incubation with recombinant PDEδ; type: binding; settings: 2 µM PD + 2 µM PDEδ, 20 mM Tris buffer pH 7.5, Ex 280 nm
Protocol: With the structural rationale for the binding to PDEδ from the molecular docking studies, we measured the fluorescence responses of the PDs after incubation with recombinant PDEδ proteins to confirm the binding of PDs to PDEδ. We envisioned that the hydrophobic environment of the prenyl binding pocket of PDEδ, as depicted in Figure 1(C), could enhance the fluorescent signal due to the solvatochromic characteristics of IQ scaffold. In addition, tryptophan residues near the binding site of PDEδ and the fluorophore of PDs could act as a fluorescence resonance energy transfer (FRET) pair. […] All recoded spectra of PDs are depicted in Supplemental Figure S1. To compare the binding abilities of PD derivatives to the target protein, same concentration (2 µM) of PD compound was treated and then fluorescence intensity was measured in Spectrofluorometer FP-6500.
The fluorescence changes were measured to determine the interaction between PD compounds and PDEδ protein. The fluorescence spectra were obtained under Tris buffer [20 mM Tris-HCl (pH 7.5), 100 mM NaCl] at 20 °C. The concentration of PDEδ was 2 µM. After the addition of 2 µM PD compound, the mixture was gently inverted 3 times and then incubated for 1 min. The emission spectra were recorded on Spectrofluorometer FP-6500 (JASCO, Tokyo, Japan) at Ex 280 nm. The band width was 3 nm for excitation and 5 nm for emission.

PANC-1 cells = assay: Immunofluorescence staining of RAS localisation; type: cell-based, human; settings: 18 h, anti-pan RAS antibody, PD3 10 µM, deltarasin 2, 5, 10 µM
From the text: Finally, we investigated whether PD3 changes KRAS localisation by inhibiting the interaction of KRAS with PDEδ in human pancreatic cancer cells. PDEδ binds the farnesylated RAS proteins and stabilises them[19]. Therefore, PDEδ activity leads to the accumulation of RAS at the plasma membrane (PM); conversely, downmodulation of PDEδ enhances RAS diffusion in the cytoplasm. To confirm the effect of PD3 on the relocalization of RAS, we carried out immunofluorescence staining of PANC-1 cells with an anti-RAS antibody (Figure 6). […] Conversely, in the DMSO-treated control group, RAS was mainly localised in the PM of PANC-1 cells. […] It is supposed that PD3 can induce changes in RAS localisation from the plasma membrane by interrupting the protein–protein interaction of KRAS-PDEδ.
Figure 6. Immunofluorescence of PANC-1 cells with an anti-Pan-RAS antibody (red). DMSO was used as a negative control, and deltarasin was used as a positive control. Ex: 633 nm, Em: ≥638 nm. The scale bar represents 20 µm.
PANC-1 cells were seeded with cover slip in a 6-well cell culture plate (SPL life Science, Gyeonggi-do, Republic of Korea) and incubated for 24 h under 37 °C and 5% CO2 prior to the experiment. […] The fluorescence images were detected by confocal microscope (TCS-SP8 confocal laser scanning microscope, Leica, Germany). Fluorescence signal was obtained by excitation at 633 nm and emission at ≥638 nm.

[4] = retention in PDEδ on displacement by excess deltarasin, 0.5 µM PD, mean ± SD of three independent experiments

`c1ccc2cc(-c3nc4ccccc4c4cc5ccccn5c34)ccc2c1` [PD8] gave a Kd (PDEδ [1]) of 643 ± 128 nM and a Half-life (PDEδ [2]; [4]) of 35 ± 7 min.
`Brc1ccc(-c2nc3ccccc3c3cc4ccccn4c23)cc1` [PD1] showed a Kd (PDEδ [1]) of 284 ± 140 nM and a Half-life (PDEδ [2]; [4]) of 36 ± 2 min.
With `c1csc(-c2nc3ccccc3c3cc4ccccn4c23)c1` [PD25] the Kd (PDEδ [1]) was 425 ± 75 nM and the Half-life (PDEδ [2]; [4]) was 26 ± 3 min.
`COc1ccc(-c2nc3ccccc3c3cc4ccccn4c23)cc1` [PD5] was tested, and the Kd (PDEδ [1]) was 720 ± 85 nM and the Half-life (PDEδ [2]; [4]) was 20 ± 4 min.
Compound `c1ccc(-c2nc3ccccc3c3cc4ccccn4c23)cc1` [PD4] has a Kd (PDEδ [1]) of 505 ± 33 nM and a Half-life (PDEδ [2]; [4]) of 31 ± 9 min.
`c1ccc2c(-c3nc4ccccc4c4cc5ccccn5c34)cccc2c1` [PD7] was tested, and the Kd (PDEδ [1]) was 1540 ± 180 nM, the Half-life (PDEδ [2]; representative kinetic trace, single exponential decay) was 13 min and the koff (PDEδ [2]; representative kinetic trace, single exponential decay, read-out: dissociation rate constant k (converted)) was 0.0009 s⁻¹. It also gave a Half-life (PDEδ [2]; [4]) of 14 ± 1 min.
`COc1ccc(-c2nc3ccccc3c3cc4ccccn4c23)cc1OC` [PD6] was tested, and the “Fluorescence response upon incubation with PDEδ” value (PDEδ [3]) was “exceeded the maximum detection limit of Spectrofluorometer”, the Kd (PDEδ [1]) was 1280 ± 261 nM and the Half-life (PDEδ [2]; [4]) was 19 ± 3 min.
With `c1ccc(Cn2c(-c3ccc(OC[C@H](C4CCNCC4)n4c(-c5ccccc5)nc5ccccc54)cc3)nc3ccccc32)cc1` [deltarasin, reference compound] the “RAS localisation at the plasma membrane (PM)” value (PANC-1 cells) was “reduced the amount of RAS at the PM”.
